Measurements reported in US20060229322A1, “Anhydrous crystalline form of valacyclovir hydrochloride” (priority 2002, published 2006).
Where a name gives a salt, the structure may show the parent alone.

Tests used:
[1] = type: physicochemical
From the text: (§1) Such stability is vital for a pharmaceutical since stocks thereof may be stored for long periods prior to use. […] The forms of the invention are therefore suitable for transport in countries where ambient temperatures are exceptionally high.

[2] = Storage stability of the anhydrous crystalline form at room temperature; type: physicochemical
From the text: as §1

- time for which stability is exhibited when heated [1]: over 550 hours
- time shown to be stable [2]: over 3 years
SMILES: CC(C)[C@H](N)C(=O)OCCOCn1cnc2c(=O)[nH]c(N)nc21 [valacyclovir hydrochloride]
